The numbers were not newly measured in US20250354118A1, “COMPOSITIONS AND METHODS FOR NK CELL DIFFERENTIATION” (Umoja Biopharma, Inc., priority 2022, published 2025), which cites them from elsewhere.

The data set addresses PSMA-positive human prostate cancer cells (Homo sapiens, UniProt Q04609). Particulars: Kularatne et al., Mol Pharm. 2009.

PSMA-positive human prostate cancer cells, sequence (Q04609 whole entry): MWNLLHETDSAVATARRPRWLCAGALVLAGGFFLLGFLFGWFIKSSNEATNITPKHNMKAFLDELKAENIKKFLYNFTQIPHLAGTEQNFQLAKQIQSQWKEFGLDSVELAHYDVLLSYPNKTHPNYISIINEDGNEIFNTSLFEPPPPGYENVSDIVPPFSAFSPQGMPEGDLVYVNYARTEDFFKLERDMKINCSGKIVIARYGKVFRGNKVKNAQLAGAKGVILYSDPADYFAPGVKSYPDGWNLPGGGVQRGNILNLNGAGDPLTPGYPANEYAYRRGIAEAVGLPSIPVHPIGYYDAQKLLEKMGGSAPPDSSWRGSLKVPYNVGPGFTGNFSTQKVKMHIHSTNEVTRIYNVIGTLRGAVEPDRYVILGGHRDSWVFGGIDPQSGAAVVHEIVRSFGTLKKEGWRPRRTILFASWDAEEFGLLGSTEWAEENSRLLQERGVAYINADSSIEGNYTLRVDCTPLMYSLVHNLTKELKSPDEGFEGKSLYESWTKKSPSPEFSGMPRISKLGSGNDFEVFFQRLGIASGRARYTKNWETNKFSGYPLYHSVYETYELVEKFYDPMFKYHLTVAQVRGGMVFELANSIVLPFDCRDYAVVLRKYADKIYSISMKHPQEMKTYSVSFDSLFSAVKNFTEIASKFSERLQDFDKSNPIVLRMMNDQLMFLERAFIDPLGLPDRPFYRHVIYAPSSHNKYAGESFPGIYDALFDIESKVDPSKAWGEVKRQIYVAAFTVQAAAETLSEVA

For `O=C(O)CC[C@H](NC(=O)N[C@@H](CCC(=O)O)C(=O)O)C(=O)O` [DUPA], the Kd was 14 nM.

The Kd is the equilibrium constant for the complex coming apart.
